The results in this text go back to ChEMBL document CHEMBL1135062, “Total synthesis and semi-synthetic approaches to analogues of antibacterial natural product althiomycin” (2002).

The structures appear in SMILES notation. Values after ≈ are worked out from the molar mass of the structure shown.

Common to all, as to type: functional
The test system of assay [1] is Saccharomyces cerevisiae. Kind of assay: Tested for the minimum inhibitory concentration against Saccharomyces cerevisiae NCYC 81.
The subject of assay [2] is Staphylococcus aureus. Kind of assay: Tested for the minimum inhibitory concentration against Staphylococcus aureus 853E.
Assay [3] concerns Staphylococcus aureus. The assay is described as follows: Tested for the minimum inhibitory concentration against Staphylococcus aureus col.
Assay [4] deals with Enterococcus faecalis. Kind of assay: Tested for the minimum inhibitory concentration against […] faecalis 850E.
For assay [5], the system named is Escherichia coli. The assay is described as follows: Tested for the minimum inhibitory concentration against Escherichia coli 1852E PM.
Assay [6] has as its system Bacillus subtilis. Kind of assay: Tested for the minimum inhibitory concentration against Bacillus subtilis 6633.
The subject of assay [7] is Escherichia coli. The assay is described as follows: Tested for the minimum inhibitory concentration against Escherichia coli 1852E + 3 ug/mL PMBN.
The subject of assay [8] is Streptococcus pneumoniae. Kind of assay: Tested for the minimum inhibitory concentration against Streptococcus pneumoniae 3512.

As to `CO/N=C(\C(=O)N[C@@H]1C(=O)N2C(C(=O)O)=C(CSc3nc(=O)c(O)nn3C)CS[C@H]12)c1csc(N)n1` [CEFTRIAXONE], the MIC (commonly the lowest concentration that inhibits growth of the organism) in assay [1] was over 32 µg/mL; in assay [2] it was 4 µg/mL (≈ 7.21 µM); in assay [3], over 32 µg/mL; in assay [4] it was 16 µg/mL (≈ 28.9 µM); in assay [5], 0.06 µg/mL (≈ 0.108 µM); in assay [6], 0.25 µg/mL (≈ 0.451 µM). In addition, the minimum inhibitory concentration (MIC) in assay [7] was 0.01 µg/mL; in assay [8] it was 0.01 µg/mL (≈ 0.018 µM).

Consider `COC1=CC(=O)N(C(=O)[C@H]2CSC(C(CO)NC(=O)c3csc(/C=N/O)n3)=N2)C1` (some centres undefined), for which the minimal inhibitory concentration (MIC) in assay [1] is over 32 µg/mL; in assay [2] it was 16 µg/mL (≈ 36.4 µM); in assay [3], 16 µg/mL (≈ 36.4 µM); in assay [4], 16 µg/mL (≈ 36.4 µM); in assay [5] it was 1 µg/mL (≈ 2.28 µM); in assay [6] it was 16 µg/mL (≈ 36.4 µM). Besides, the MIC amounted to 1 µg/mL in assay [7] and 4 µg/mL (≈ 9.1 µM) in assay [8].

`COC1=CC(=O)N(C(=O)[C@H]2CSC(CNC(C)=O)=N2)C1`: the MIC is over 32 µg/mL in assay [1]; 32 µg/mL (≈ 108 µM) in assay [2]; 32 µg/mL (≈ 108 µM) in assay [3]; 32 µg/mL (≈ 108 µM) in assay [4]; 16 µg/mL (≈ 53.8 µM) in assay [5]; 16 µg/mL (≈ 53.8 µM) in assay [6]. The MIC is 8 µg/mL in assay [7] and 16 µg/mL (≈ 53.8 µM) in assay [8].
